Assay results taken from ChEMBL document CHEMBL1201862, “PubChem BioAssay data set” (2004).
“And” between values parts separate entries of the source, which are not always exact repeats. Equal values may be shown once.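 Cultured in 96-well plates, cells were exposed to test compound for 48 hours across five concentrations. The concentration for 50% growth inhibition is given as GI50.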 The source made the active and inactive calls. Rule as the data show it: active = GI50 up to about 1.1 µM and inactive = higher.

Experiments:
Experiment in all cases: NCI anticancer screen, dose series, 48 h
CAKI-1 = test system: CAKI-1
SNB-19 = test system: SNB-19
786-0 = test system: 786-0
Hs-578T = test system: Hs-578T
NCI-H460 = test system: NCI-H460
ACHN = test system: ACHN
DU-145 = test system: DU-145
HOP-92 = test system: HOP-92
A549 = test system: A549
U-251 = test system: U-251
NCI-H226 = test system: NCI-H226
HOP-62 = test system: HOP-62
RXF 393 = test system: RXF 393
SF-268 = test system: SF-268
IGROV-1 = test system: IGROV-1
HCT-15 = test system: HCT-15
NCI/ADR-RES = test system: NCI/ADR-RES
K562 = test system: K562
SNB-75 = test system: SNB-75
LOX IMVI = test system: LOX IMVI
HCT-116 = test system: HCT-116
HL-60 = test system: HL-60
SN12C = test system: SN12C
MCF7 = test system: MCF7
COLO 205 = test system: COLO 205
UACC-257 = test system: UACC-257
EKVX = test system: EKVX
OVCAR-8 = test system: OVCAR-8
HT-29 = test system: HT-29
OVCAR-5 = test system: OVCAR-5
MDA-MB-435 = test system: MDA-MB-435
NCI-H23 = test system: NCI-H23
TK-10 = test system: TK-10
T47D = test system: T47D
OVCAR-3 = test system: OVCAR-3
KM12 = test system: KM12
OVCAR-4 = test system: OVCAR-4
M14 = test system: M14
SK-MEL-2 = test system: SK-MEL-2
PC-3 = test system: PC-3
BT-549 = test system: BT-549
HCC 2998 = test system: HCC 2998
SK-MEL-28 = test system: SK-MEL-28
SK-OV-3 = test system: SK-OV-3
MOLT-4 = test system: MOLT-4
SK-MEL-5 = test system: SK-MEL-5
MDA-MB-231 = test system: MDA-MB-231
SF-295 = test system: SF-295
SF-539 = test system: SF-539
SW-620 = test system: SW-620
UO-31 = test system: UO-31
MDA-N = test system: MDA-N
CCRF-CEM = test system: CCRF-CEM
SR = test system: SR
Malme-3M = test system: Malme-3M
UACC-62 = test system: UACC-62
RPMI-8226 = test system: RPMI-8226

CC(=O)OCC1OC(n2c(S)c(C#N)c(-c3ccccc3)c(C#N)c2=O)C(OC(C)=O)C(OC(C)=O)C1OC(C)=O (stereo not given)
GI50 (CAKI-1): 50.8 µM (inactive) and 61.9 µM (inactive) | GI50 (SNB-19): 32.2 µM (inactive) | GI50 (786-0): 30 µM (inactive) and 33.9 µM (inactive) | GI50 (Hs-578T): 38.8 µM (inactive) | GI50 (NCI-H460): 50.2 µM (inactive) and > 88.7 µM (inactive) | GI50 (ACHN): 54.1 µM (inactive) and 78.5 µM (inactive) | GI50 (DU-145): 58.3 µM (inactive) | GI50 (HOP-92): 31.3 µM (inactive) and 16.6 µM (inactive) | GI50 (A549): > 100 µM (inactive) | GI50 (U-251): 23.8 µM (inactive) and 35.2 µM (inactive) | GI50 (NCI-H226): > 87.7 µM (inactive) | GI50 (HOP-62): 21.7 µM (inactive) and 21.9 µM (inactive) | GI50 (RXF 393): 19.5 µM (inactive) and 18.5 µM (inactive) | GI50 (SF-268): 21.8 µM (inactive) and 33 µM (inactive) | GI50 (IGROV-1): 53 µM (inactive) | GI50 (HCT-15): > 100 µM | GI50 (NCI/ADR-RES): > 100 µM (inactive) | GI50 (K562): > 100 µM (inactive) | GI50 (SNB-75): 26.2 µM (inactive) and 20.1 µM (inactive)

Cc1ccc(/C=C2/NC(=S)SC2=O)cc1
GI50 (CAKI-1): 19.6 µM (inactive) | GI50 (LOX IMVI): 32.8 µM (inactive) | GI50 (HCT-116): 30.5 µM (inactive) | GI50 (HL-60): 27.4 µM (inactive) | GI50 (SN12C): 31 µM (inactive) | GI50 (MCF7): 39.6 µM (inactive) | GI50 (SNB-19): 29.5 µM (inactive) | GI50 (COLO 205): 35.7 µM (inactive) | GI50 (UACC-257): 31.4 µM (inactive) | GI50 (EKVX): 28.4 µM (inactive) | GI50 (786-0): 34.6 µM (inactive) | GI50 (OVCAR-8): 31 µM (inactive) | GI50 (HT-29): 28.6 µM (inactive) | GI50 (OVCAR-5): 40.8 µM (inactive) | GI50 (MDA-MB-435): 36.5 µM (inactive) | GI50 (NCI-H23): 20.7 µM (inactive) | GI50 (TK-10): 18.1 µM (inactive) | GI50 (NCI-H460): 22.4 µM (inactive) | GI50 (ACHN): 33 µM (inactive) | GI50 (DU-145): 58.5 µM (inactive) | GI50 (T47D): 31.3 µM (inactive) | GI50 (OVCAR-3): 43.7 µM (inactive) | GI50 (KM12): 33.3 µM (inactive) | GI50 (OVCAR-4): 28.9 µM (inactive) | GI50 (M14): 33 µM (inactive) | GI50 (SK-MEL-2): 36.9 µM (inactive) | GI50 (HOP-92): 43.8 µM (inactive) | GI50 (A549): 36.7 µM (inactive) | GI50 (U-251): 43.9 µM (inactive) | GI50 (PC-3): 38.4 µM (inactive) | GI50 (NCI-H226): 25.7 µM (inactive) | GI50 (HOP-62): 51.6 µM (inactive) | GI50 (BT-549): 22.6 µM (inactive) | GI50 (HCC 2998): 31.2 µM (inactive) | GI50 (SK-MEL-28): > 100 µM (inactive) | GI50 (IGROV-1): 37.7 µM (inactive) | GI50 (SK-OV-3): 88.1 µM (inactive) | GI50 (HCT-15): 24.2 µM | GI50 (MOLT-4): 33.8 µM (inactive) | GI50 (NCI/ADR-RES): 22.5 µM (inactive) | GI50 (SK-MEL-5): 32.1 µM (inactive) | GI50 (SNB-75): 20.7 µM (inactive) | GI50 (MDA-MB-231): 24.4 µM (inactive) | GI50 (SF-295): 27.6 µM (inactive) | GI50 (SF-539): 30 µM (inactive) | GI50 (SW-620): 54.2 µM (inactive) | GI50 (UO-31): 24.5 µM (inactive)

C1=C(c2ccccc2)O[C@H](COCc2ccccc2)C(OCc2ccccc2)[C@@H]1OCc1ccccc1 (stereo not given in full)
GI50 (CAKI-1): > 10 µM (inactive) | GI50 (MDA-N): > 10 µM (inactive) | GI50 (CCRF-CEM): > 10 µM (inactive) | GI50 (HL-60): > 10 µM (inactive) | GI50 (SN12C): > 10 µM (inactive) | GI50 (MCF7): > 10 µM (inactive) | GI50 (COLO 205): > 10 µM (inactive) | GI50 (UACC-257): > 10 µM (inactive) | GI50 (EKVX): > 10 µM (inactive) | GI50 (786-0): > 10 µM (inactive) | GI50 (OVCAR-8): > 10 µM (inactive) | GI50 (HT-29): > 10 µM (inactive) | GI50 (SR): > 10 µM (inactive) | GI50 (NCI-H23): > 10 µM (inactive) | GI50 (TK-10): > 10 µM (inactive) | GI50 (DU-145): > 10 µM (inactive) | GI50 (T47D): > 10 µM (inactive) | GI50 (KM12): > 10 µM (inactive) | GI50 (Malme-3M): > 10 µM (inactive) | GI50 (M14): > 10 µM (inactive) | GI50 (UACC-62): > 10 µM (inactive) | GI50 (A549): > 10 µM (inactive) | GI50 (PC-3): > 10 µM (inactive) | GI50 (HOP-62): > 10 µM (inactive) | GI50 (RXF 393): > 10 µM (inactive) | GI50 (RPMI-8226): > 10 µM (inactive) | GI50 (HCC 2998): > 10 µM (inactive) | GI50 (SF-268): > 10 µM (inactive) | GI50 (SK-MEL-28): > 10 µM (inactive) | GI50 (IGROV-1): > 10 µM (inactive) | GI50 (SK-OV-3): > 10 µM (inactive) | GI50 (HCT-15): > 10 µM | GI50 (MOLT-4): > 10 µM (inactive) | GI50 (SK-MEL-5): > 10 µM (inactive) | GI50 (K562): > 10 µM (inactive) | GI50 (SNB-75): > 10 µM (inactive) | GI50 (MDA-MB-231): > 10 µM (inactive) | GI50 (SF-295): > 10 µM (inactive) | GI50 (SW-620): > 10 µM (inactive)
